# Reference: PMC11576293, “New series of 4,6-diaryl pyrimidines: facile synthesis and antiproliferative activity as dual EGFR/VEGFR-2 inhibitors” (Frontiers in Chemistry, 2024)
# What was measured:
# [1] = tested on: HCT-15; assay: NCI-60 single-dose screen; assay type: cell-based; settings: Homo sapiens, single dose 10 µM, '-' = no inhibition, read-out: % Growth Inhibition
# Outline: (§1)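 Single concentration (10 μM) per compound, assayed by the NCI DTP against its 60-line panel covering leukemia, lung, colon, CNS, melanoma, ovarian, renal, prostate and breast cancers.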
# [2] = tested on: CAKI-1; assay: NCI-60 single-dose screen; assay type: cell-based; settings: Homo sapiens, single dose 10 µM, '-' = no inhibition, read-out: % Growth Inhibition
# Outline: as §1
# [3] = tested on: DU-145; assay: NCI-60 single-dose screen; assay type: cell-based; settings: Homo sapiens, single dose 10 µM, '-' = no inhibition, read-out: % Growth Inhibition
# Outline: as §1
# [4] = tested on: 786-0; assay: NCI-60 single-dose screen; assay type: cell-based; settings: Homo sapiens, single dose 10 µM, '-' = no inhibition, read-out: % Growth Inhibition
# Outline: as §1
# [5] = tested on: SW-620; assay: NCI-60 single-dose screen; assay type: cell-based; settings: Homo sapiens, single dose 10 µM, '-' = no inhibition, read-out: % Growth Inhibition
# Outline: as §1
# [6] = tested on: LOX IMVI; assay: NCI-60 single-dose screen; assay type: cell-based; settings: Homo sapiens, single dose 10 µM, '-' = no inhibition, read-out: % Growth Inhibition
# Outline: as §1
# [7] = tested on: KM12; assay: NCI-60 single-dose screen; assay type: cell-based; settings: Homo sapiens, single dose 10 µM, '-' = no inhibition, read-out: % Growth Inhibition
# Outline: as §1
# [8] = tested on: M14; assay: NCI-60 single-dose screen; assay type: cell-based; settings: Homo sapiens, single dose 10 µM, '-' = no inhibition, read-out: % Growth Inhibition
# Outline: as §1
# [9] = tested on: SF-268; assay: NCI-60 single-dose screen; assay type: cell-based; settings: Homo sapiens, single dose 10 µM, '-' = no inhibition, read-out: % Growth Inhibition
# Outline: as §1
# [10] = tested on: MDA-MB-468; assay: NCI-60 single-dose screen; assay type: cell-based; settings: Homo sapiens, single dose 10 µM, '-' = no inhibition, read-out: % Growth Inhibition
# Outline: as §1
# [11] = tested on: A498; assay: NCI-60 single-dose screen; assay type: cell-based; settings: Homo sapiens, single dose 10 µM, '-' = no inhibition, read-out: % Growth Inhibition
# Outline: as §1
# [12] = tested on: SK-MEL-28; assay: NCI-60 single-dose screen; assay type: cell-based; settings: Homo sapiens, single dose 10 µM, '-' = no inhibition, read-out: % Growth Inhibition
# Outline: as §1
# [13] = tested on: NCI-H23; assay: NCI-60 single-dose screen; assay type: cell-based; settings: Homo sapiens, single dose 10 µM, '-' = no inhibition, read-out: % Growth Inhibition
# Outline: as §1
# [14] = tested on: SK-MEL-2; assay: NCI-60 single-dose screen; assay type: cell-based; settings: Homo sapiens, single dose 10 µM, '-' = no inhibition, read-out: % Growth Inhibition
# Outline: as §1
# [15] = tested on: ACHN 1; assay: NCI-60 single-dose screen; assay type: cell-based; settings: Homo sapiens, single dose 10 µM, '-' = no inhibition, read-out: % Growth Inhibition
# Outline: as §1
# [16] = tested on: NCI-H322M; assay: NCI-60 single-dose screen; assay type: cell-based; settings: Homo sapiens, single dose 10 µM, '-' = no inhibition, read-out: % Growth Inhibition
# Outline: as §1
# [17] = tested on: CCRF-CEM; assay: NCI-60 single-dose screen; assay type: cell-based; settings: Homo sapiens, single dose 10 µM, '-' = no inhibition, read-out: % Growth Inhibition
# Outline: as §1
# [18] = tested on: SF-295; assay: NCI-60 single-dose screen; assay type: cell-based; settings: Homo sapiens, single dose 10 µM, '-' = no inhibition, read-out: % Growth Inhibition
# Outline: as §1
# [19] = tested on: UACC-62; assay: NCI-60 single-dose screen; assay type: cell-based; settings: Homo sapiens, single dose 10 µM, '-' = no inhibition, read-out: % Growth Inhibition
# Outline: as §1
# [20] = tested on: HT29; assay: NCI-60 single-dose screen; assay type: cell-based; settings: Homo sapiens, HT-29, single dose 10 µM, '-' = no inhibition, read-out: % Growth Inhibition
# Outline: as §1
# [21] = tested on: OVCAR-4; assay: NCI-60 single-dose screen; assay type: cell-based; settings: Homo sapiens, single dose 10 µM, '-' = no inhibition, read-out: % Growth Inhibition
# Outline: as §1
# [22] = tested on: OVCAR-5; assay: NCI-60 single-dose screen; assay type: cell-based; settings: Homo sapiens, single dose 10 µM, '-' = no inhibition, read-out: % Growth Inhibition
# Outline: as §1
# [23] = tested on: MOLT-4; assay: NCI-60 single-dose screen; assay type: cell-based; settings: Homo sapiens, single dose 10 µM, '-' = no inhibition, read-out: % Growth Inhibition
# Outline: as §1
# [24] = tested on: U251; assay: NCI-60 single-dose screen; assay type: cell-based; settings: Homo sapiens, U-251, single dose 10 µM, '-' = no inhibition, read-out: % Growth Inhibition
# Outline: as §1
# [25] = tested on: NCI-H460; assay: NCI-60 single-dose screen; assay type: cell-based; settings: Homo sapiens, single dose 10 µM, '-' = no inhibition, read-out: % Growth Inhibition
# Outline: as §1
# [26] = tested on: HCC-2998; assay: NCI-60 single-dose screen; assay type: cell-based; settings: Homo sapiens, single dose 10 µM, '-' = no inhibition, read-out: % Growth Inhibition
# Outline: as §1
# [27] = tested on: SK-OV-3; assay: NCI-60 single-dose screen; assay type: cell-based; settings: Homo sapiens, single dose 10 µM, '-' = no inhibition, read-out: % Growth Inhibition
# Outline: as §1
# [28] = tested on: HOP-62; assay: NCI-60 single-dose screen; assay type: cell-based; settings: Homo sapiens, single dose 10 µM, '-' = no inhibition, read-out: % Growth Inhibition
# Outline: as §1
# [29] = tested on: HL-60(TB); assay: NCI-60 single-dose screen; assay type: cell-based; settings: Homo sapiens, single dose 10 µM, '-' = no inhibition, read-out: % Growth Inhibition
# [30] = tested on: SK-MEL-5; assay: NCI-60 single-dose screen; assay type: cell-based; settings: Homo sapiens, single dose 10 µM, '-' = no inhibition, read-out: % Growth Inhibition
# Outline: as §1
# [31] = tested on: TK-10; assay: NCI-60 single-dose screen; assay type: cell-based; settings: Homo sapiens, single dose 10 µM, '-' = no inhibition, read-out: % Growth Inhibition
# Outline: as §1
# [32] = tested on: T-47D; assay: NCI-60 single-dose screen; assay type: cell-based; settings: Homo sapiens, T47D, single dose 10 µM, '-' = no inhibition, read-out: % Growth Inhibition
# Outline: as §1
# [33] = tested on: NCI-H522; assay: NCI-60 single-dose screen; assay type: cell-based; settings: Homo sapiens, single dose 10 µM, '-' = no inhibition, read-out: % Growth Inhibition
# Outline: as §1
# [34] = tested on: K-562; assay: NCI-60 single-dose screen; assay type: cell-based; settings: Homo sapiens, K562, single dose 10 µM, '-' = no inhibition, read-out: % Growth Inhibition
# Outline: as §1
SMILES,inhibition at 10 µM [1],inhibition at 10 µM [2],inhibition at 10 µM [3],inhibition at 10 µM [4],inhibition at 10 µM [5],inhibition at 10 µM [6],inhibition at 10 µM [7],inhibition at 10 µM [8],inhibition at 10 µM [9],inhibition at 10 µM [10],inhibition at 10 µM [11],inhibition at 10 µM [12],inhibition at 10 µM [13],inhibition at 10 µM [14],inhibition at 10 µM [15],inhibition at 10 µM [16],inhibition at 10 µM [17],inhibition at 10 µM [18],inhibition at 10 µM [19],inhibition at 10 µM [20],further results
"COc1ccc(-c2cc(-c3ccc(Cl)cc3)nc(SC(C)C)n2)cc1OC [Compound 26, 4-(4-Chlorophenyl)-2-(isopropylthio)-6-(3,4-dimethoxyphenyl)pyrimidine]",4.73%,9.22%,< 0%,< 0%,2.64%,4.14%,1.72%,< 0%,< 0%,7.33%,< 0%,< 0%,< 0%,< 0%,< 0%,1.11%,1.08%,< 0%,17.4%,13.1%,inhibition at 10 µM [21]: < 0%; inhibition at 10 µM [22]: < 0%; inhibition at 10 µM [23]: 5.51%; inhibition at 10 µM [24]: < 0%; inhibition at 10 µM [25]: < 0%; inhibition at 10 µM [26]: < 0%; inhibition at 10 µM [27]: < 0%; inhibition at 10 µM [28]: < 0%; inhibition at 10 µM [29]: 14.5%; inhibition at 10 µM [30]: < 0%; inhibition at 10 µM [31]: < 0%; inhibition at 10 µM [32]: 14.2%; inhibition at 10 µM [33]: 9.05%; inhibition at 10 µM [34]: 6.67%; melting point: 233 to 253 °C
"COc1ccc(-c2cc(-c3ccc(Cl)cc3)nc(SCc3ccccc3)n2)cc1 [Compound 14, 2-(Benzylthio)-4-(4-chlorophenyl)-6-(4-methoxyphenyl)pyrimidine]",4.95%,2.18%,1.74%,< 0%,< 0%,3.14%,< 0%,< 0%,< 0%,< 0%,< 0%,< 0%,< 0%,7.79%,11%,< 0%,< 0%,< 0%,< 0%,8.96%,inhibition at 10 µM [21]: < 0%; inhibition at 10 µM [22]: 2.5%; inhibition at 10 µM [23]: 4.54%; inhibition at 10 µM [24]: < 0%; inhibition at 10 µM [25]: < 0%; inhibition at 10 µM [26]: < 0%; inhibition at 10 µM [27]: < 0%; inhibition at 10 µM [28]: < 0%; inhibition at 10 µM [29]: 18.1%; inhibition at 10 µM [30]: 2.06%; inhibition at 10 µM [31]: < 0%; inhibition at 10 µM [32]: 14.4%; inhibition at 10 µM [33]: < 0%; inhibition at 10 µM [34]: 11.7%; melting point: 288 to 290 °C
"C=CCSc1nc(-c2ccc(Cl)cc2)cc(-c2ccc(OC)cc2)n1 [Compound 13, 2-(Allylthio)-4-(4-chlorophenyl)-6-(4-methoxyphenyl)pyrimidine]",7.93%,14.8%,1.02%,3.01%,< 0%,4.72%,0.8%,4.04%,< 0%,16.2%,< 0%,< 0%,3.36%,4.96%,< 0%,0.59%,3.79%,1.47%,26.2%,17.2%,inhibition at 10 µM [21]: 12.1%; inhibition at 10 µM [22]: < 0%; inhibition at 10 µM [23]: 14.3%; inhibition at 10 µM [24]: < 0%; inhibition at 10 µM [25]: 0.1%; inhibition at 10 µM [26]: < 0%; inhibition at 10 µM [27]: < 0%; inhibition at 10 µM [28]: < 0%; inhibition at 10 µM [29]: 26.8%; inhibition at 10 µM [30]: 1%; inhibition at 10 µM [31]: < 0%; inhibition at 10 µM [32]: 18.4%; inhibition at 10 µM [33]: 10.2%; inhibition at 10 µM [34]: 15.6%; melting point: 245 to 247 °C
"CCSc1nc(-c2ccc(Cl)cc2)cc(-c2ccc(OC)c(OC)c2)n1 [Compound 24, 4-(4-Chlorophenyl)-2-(ethylthio)-6-(3,4-dimethoxyphenyl)pyrimidine]",30.7%,27.5%,7.4%,11.8%,20.9%,11.9%,29.8%,3.7%,16.9%,11.3%,1.95%,5.5%,1.67%,11.9%,7.24%,13.8%,19.3%,7.88%,< 0%,28.3%,inhibition at 10 µM [21]: 26.4%; inhibition at 10 µM [22]: 11%; inhibition at 10 µM [23]: 37%; inhibition at 10 µM [24]: 14.7%; inhibition at 10 µM [25]: < 0%; inhibition at 10 µM [26]: 4.44%; inhibition at 10 µM [27]: < 0%; inhibition at 10 µM [28]: < 0%; inhibition at 10 µM [29]: 22.8%; inhibition at 10 µM [30]: 28.9%; inhibition at 10 µM [31]: < 0%; inhibition at 10 µM [32]: 37.6%; inhibition at 10 µM [33]: 2.36%; inhibition at 10 µM [34]: 41.5%; melting point: 229 to 231 °C
